“Also recorded” adds a separate entry of the source.
What was measured:
[1] = system: Notch4 expression on differentiating iTreg cells; assay: in vitro iTreg cell differentiation: OT-II T cells co-cultured with OVA323-339- or OVA323-339+UFP-pulsed alveolar macrophages, Notch4 by flow cytometry; format: cell-based, mouse; conditions: for Notch4 expression on differentiating iTreg cells: cytokine added to co-cultures with OVA323-339 / OVA323-339+UFP-pulsed alveolar macrophages
From the text: (§1) FIGS. 1A-1H show Notch4 expression on lung Treg cells in allergic airway inflammation. (FIG. 1A) RT-PCR of Notchl-4 transcripts in lung Treg and Teff cells isolated from PBS, OVA and OVA+UFP mouse groups. (FIG. 1B and FIG. 1C) Flow cytometric analysis, cell frequencies and mean fluorescence intensity (MFI) of Notch4 expression on lung Treg and Teff cells in the respective mouse groups. (FIG. 1D and FIG. 1E) Flow cytometric analysis and cell frequencies of Notch4 expression on OT-II^+CD4^+Foxp3^+ T cells generated in co-cultures with sham or OVA323-339+UFP-pulsed alveolar macrophages without or with IL-6 or anti-IL-6R mAb. (FIG. 1F) Flow cytometric analysis and cell frequencies of Notch4 expression in Helios^high and Helios^low lung Treg cells isolated from the respective mouse groups. (FIG. 1G) Flow cytometric analysis and cell frequencies of Notch4 expression on in vitro differentiated Treg cells derived from naive CD4^+ T cells isolated from Foxp3^YFPCre, Foxp3^YFPCreIl6r^Δ/Δ and Foxp3^YFPCreStat3^Δ/Δ mice and either untreated or treated with IL-6. (FIG. 1H) ChIP assays for the binding of STAT3 and control (IgG) antibodies to the Notch4 promoter in lung Treg cells of OVA+UFP-treated Foxp3^YFPCre, and Foxp3^YFPCreStat3^Δ/Δ mice. Each symbol represents one mouse. Numbers in flow plots indicate percentages. Error bars indicate SEM. Statistical tests for all panels: One-way ANOVA with Dunnett’s post hoc analysis. *P<0.05, **P<0.01, ***P<0.001, ****P<0.0001. Data representative of two or three independent experiments. (FIGS. 1A, 1D to 1F) n=5, (FIGS. 1B and 1C) n=15 and (FIGS. 1G and 1H) n=6 replicates per group.
FIGS. 7A-7E show Notch4 expression on lung Treg cells in allergic airway inflammation. (FIGS. 7A to 7C) Flow cytometric analysis, cell frequencies and mean fluorescence intensity (MFI) of Notch1, 2 and 3 expression on lung Treg and Teff cells in the respective mouse groups. (FIG. 7D) Cell frequencies of Notch4 expression on OT-II^+CD4^+Foxp3^+ T cells generated in co-cultures with sham or OVA323-339+UFP-pulsed alveolar macrophages without or with IL-1B, IL-25, IL-33, TSLP or TNFa. (FIG. 7E) ChIP assays for the binding of STAT3 and control (IgG) antibodies to the Notch1, 2 and 3 promoters in lung Treg cells of OVA+UFP-treated Foxp3^YFPCre, and Foxp3^YFPCreStat3^Δ/Δ mice. Each symbol represents one mouse. Numbers in flow plots indicate percentages. Error bars indicate SEM. Statistical tests for all panels: One-way ANOVA with Dunnett’s post hoc analysis. *P<0.05, **P<0.01, ***P<0.001, ****P<0.0001. Data representative of two or three independent experiments. N = 5-10 replicas per group.
To examine signals driving the induction of Notch4 on iTreg cells, the inventors employed an in vitro iTreg cell differentiation system in which OT-II T cell receptor (TCR) transgenic T cells, specific for the OVA323-339 peptide, were incubated with isolated primary alveolar macrophages (AM). […] Chromatin immunoprecipitation assays confirmed IL-6-dependent inducible binding of STAT3 to the Notch4 promoter in Treg cells, but not to those of Notch1, Notch2 or Notch3, which was abrogated by Stat3 deletion (FIG. 1I; […]).

[2] = system: Notch4 expression on Treg cells; assay: Notch4 expression on peripheral blood Treg cells of a severe asthmatic subject before and after therapy; format: in vivo, human; conditions: post therapy
From the text: In contrast, Notch4 expression on circulating CD4^+ Teff cells was low and remained relatively flat as a function of asthma severity (FIG. 6B). Also, expression of Notchl-3 on Treg and Teff cells was not increased in asthmatics as compared to control subjects (FIGS. 17A-17I). Notch4 expression was restricted to the Helios^low iTreg cell subpopulation (FIG. 6C). […] Also, there were increased concentrations of GDF 15 in the sera of moderate and severe asthmatics that positively correlated with circulating Treg cell Notch4 expression (FIG. 6F).

[3] = system: allergic airway inflammation; assay: OVA+UFP allergic airway inflammation in mice, intra-tracheal instillation; format: in vivo, mouse
Description: (§2) FIGS. 5A-5L show Notch4 promotes ILC2 activation via a GDF15-dependent mechanism (FIG. 5A) Flow cytometric analysis and frequencies of IL13^+ ILC2 (Lineage^- T1/ST2^+ cells) in mice of respective genotypes treated as indicated. (FIG. 5B and FIG. 5C) In vitro suppression assays of ILC2 cells isolated from OVA+UFP-treated Foxp3^YFPCre mice and incubated with Treg cells of mice of the respective genotypes treated as indicated. Additional treatment of in vitro cultures with isotype control or anti-Notch4 mAb is also indicated. (FIG. 5D) Flow cytometric analysis and frequencies of GDF15^+ lung Treg cells of mice of the respective genotypes treated as indicated. (FIG. 5E) Flow cytometric analysis and frequencies of IL-13 expression in cultures of naive ILC2 stimulated with IL-33, GDF15 or both. (FIG. 5F) IL-13 expression in naive ILC2 incubated with Notch4^high Treg cells from OVA+UFP treated mice without or with blocking GDF15 peptide. (FIG. 5G and FIG. 5H) AHR and IL13^+ ILC2 frequencies in Foxp3^YFPCre mice treated as indicated and challenged in the presence of carrier protein or GDF15 blocking peptide. (FIG. 5I to FIG. 5K) AHR and frequencies of the indicated lung cell types in sham or OVA+UFP sensitized and challenged Foxp3^YFPCre and Foxp3^YFPCreNotch4^Δ/Δ mice treated with recombinant GDF15, as indicated. Each symbol represents an independent sample. Numbers in flow plots indicate percentages. Error bars indicate SEM. Statistical tests: two-way ANOVA with Sidak’s post hoc analysis (FIGS. 5A to 5D, 5G and 5I); One-way ANOVA with Dunnett’s post hoc analysis (FIGS. 5E and 5F, 5H and 5J). *P<0.05, ***P<0.001, ****P<0.0001. Data representative of two or three independent experiments. n=5-15 mice per group.
(FIG. 18A) Representative PAS-stained sections of lung tissues isolated from Foxp3^YFPCre and Foxp3^YFPCreNotch4^Δ/Δ with either PBS or OVA+UFP, the latter either alone or supplemented with GDF15, as indicated (200X magnification). (FIG. 18B) Inflammation score for the respective mouse groups. (FIG. 18C) Frequencies of ILC in the lungs of respective mouse groups. (FIG. 18D) IL-4, IL-13, and IL-17 expression in lung Foxp3^-CD4^+ Teff cells in the respective groups. (FIG. 18E) IL-4, IL-13, and IL-17 expression in lung Foxp3^+CD4^+ Treg cells in the respective groups. Error bars indicate SEM. Statistical tests. One-way ANOVA with Dunnett’s post hoc analysis. (FIGS. 18A-18E) **P<0.01, ***P<0.001, ****P<0.0001. Data representative of two or three independent experiments. n=10 mice per group.
(FIG. 19A) Representative PAS-stained sections of lung tissues isolated from Foxp3^YFPCre, treated with GDF15 blocking peptide segregated into PBS, or OVA+UFP-treated groups (200X magnification). (FIG. 19B) Inflammation score for the respective mouse groups. […]

GDF15 = assay: in vitro co-culture of GDF15-expressing Notch4high Treg cells with naive ILC2 cells; format: cell-based, mouse; conditions: Treg cells from lungs of OVA+UFP-treated mice
Description: as §2, with “Numbers in flow plots indicate percentages. Error bars indicate SEM. Statistical tests: two-way ANOVA with Sidak’s post hoc analysis (FIGS. 5A to 5D, 5G and 5I); One-way ANOVA with Dunnett’s post hoc analysis (FIGS. 5E and 5F, 5H and 5J). *P<0.05, ***P<0.001, ****P<0.0001. Data representative of two or three independent experiments. n=5-15 mice per group.” left out

[4] = system: Notch4 on differentiating Treg cells; assay: antigen presenting cell-free in vitro iTreg cell differentiation (anti-CD3+anti-CD28 mAbs, TGF-β1); format: cell-based, mouse; conditions: naive T cells
From the text: as §1, with “Statistical tests for all panels: One-way ANOVA with Dunnett’s post hoc analysis. *P<0.05, **P<0.01, ***P<0.001, ****P<0.0001. Data representative of two or three independent experiments. (FIGS. 1A, 1D to 1F) n=5, (FIGS. 1B and 1C) n=15 and (FIGS. 1G and 1H) n=6 replicates per group.” left out

[5] = system: IL-13 expression in naive ILC2; assay: in vitro cultures of ILC2 derived from naive mice stimulated with GDF15, IL-33 or both; format: cell-based, mouse
Description: as §2, with “Numbers in flow plots indicate percentages. Error bars indicate SEM. Statistical tests: two-way ANOVA with Sidak’s post hoc analysis (FIGS. 5A to 5D, 5G and 5I); One-way ANOVA with Dunnett’s post hoc analysis (FIGS. 5E and 5F, 5H and 5J). *P<0.05, ***P<0.001, ****P<0.0001. Data representative of two or three independent experiments. n=5-15 mice per group.” left out

[6] = OVA+UFP treated Foxp3YFPCreNotch4Δ/Δ mice, intra-tracheal instillation

With TNFa the “Notch4 expression on differentiating iTreg cells” value [1] was “not”.

With IL-1β: cytokine added to cell cultures the “Notch4 expression on differentiating iTreg cells” value [1] was “not”.

With “Tocilizumab: anti-IL-6R mAb (anti-IL-6Ra chain mAb)” the “Notch4 expression on patient Treg cells” value [2] was “decreased Notch4 expression” and the “Notch4 expression on patient Treg cells” value ([2]; listed as tocilizumab) was “substantially attenuated Notch4 expression”.

With “GDF15 blocking peptide: GDF15 inhibitory peptide, KTSLHRLKPDTVPAPC (SEQ ID NO: 1; amino acids 258-273 of the full length GDF15 gene product) (listed as Homo sapiens)” the “AHR, tissue inflammation, IL-4 and IL-13 expression in Teff cells (allergic airway inflammation)” value ([3]; OVA+UFP treated Foxp3YFPCre mice, instillation) was “downregulated the aforementioned changes; also recorded: attenuates allergic airway inflammation” and the “upregulation of IL13 expression in naive ILC2 by Notch4high Treg cells” value (GDF15) was “reversed”.

For TSLP: cytokine added to cell cultures, the “Notch4 expression on differentiating iTreg cells” value [1] was “not”.

With “IL-6: interleukin-6 cytokine added to cell cultures” the “Notch4 on differentiating Treg cells” value [4] was “induced Notch4 on differentiating Treg cells” and the “Notch4 expression on differentiating iTreg cells” value [1] was “super-induction of Notch4 expression”.

B1: IL-33: cytokine added to cell cultures (protein, UniProt O95760 1-270, looked up)
Interleukin-33: MKPKMKYSTNKISTAKWKNTASKALCFKLGKSQQKAKEVCPMYFMKLRSGLMIKKEACYFRRETTKRPSLKTGRKHKRHLVLAACQQQSTVECFAFGISGVQKYTRALHDSSITGISPITEYLASLSTYNDQSITFALEDESYEIYVEDLKKDEKKDKVLLSYYESQHPSNESGDGVDGKMLMVTLSPTKDFWLHANNKEHSVELHKCEKPLPDQAFFVLHNMHSNCVSFECKTDPGVFIGVKDNHLALIKVDSSENLCTENILFKLSET
In the case of B1, the “Notch4 expression induced by IL-6” value ([1]; added together with IL-6) is reported as “further upregulated the expression of Notch4” and the “Notch4 expression on differentiating iTreg cells” value [1] is reported as “did not induce Notch4 on its own”.

B2: recombinant GDF15: recombinant cytokine growth and differentiation factor 15, secreted ligand of the TGF-beta superfamily (protein, UniProt Q99988 195-308, looked up)
Growth/differentiation factor …: ARARNGDHCPLGPGRCCRLHTVRASLEDLGWADWVLSPREVQVTMCIGACPSQFRAANMHAQIKTSLHRLKPDTVPAPCCVPASYNPMVLIQKTDTGVSLQTYDDLLAKDCHCI
For B2, the “AHR and tissue inflammation” value [3, 6] was “upregulated the AHR and tissue inflammation”, the “IL-4 and IL-13 expression in Teff cells” value [3, 6] was “increasing IL-4 and IL-13 expression in Teff cells” and the “AHR and tissue inflammation” value ([3]; OVA+UFP treated Foxp3YFPCreNotch4Δ/Δ mice, intra-tracheal instillation, listed as GDF15) was “restores airway inflammation”. The “IL-13 expression in ILC2 derived from naive mice” value ([5]; alone) was “upregulated IL-13 expression alone” and the “IL-13 expression in ILC2 derived from naive mice” value ([5]; in combination with IL-33) was “especially in synergy with IL-33”.

B3: IL-25: cytokine added to cell cultures (protein, UniProt Q9H293 33-177, looked up)
Interleukin-25: YSHWPSCCPSKGQDTSEELLRWSTVPVPPLEPARPNRHPESCRASEDGPLNSRAISPWRYELDRDLNRLPQDLYHARCLCPHCVSLQTGSHMDPRGNSELLYHNQTVFYRRPCHGEKGTHKGYCLERRLYRVSLACVCVRPRVMG
In the case of B3, the “Notch4 expression on differentiating iTreg cells” value [1] is reported as “not”.
